Source: EP4711369A1, “1H-[1,2,3]TRIAZOLO[4,5-H]QUINAZOLINE COMPOUNDS AS PROTEIN KINASE INHIBITORS” (Chengdu Cynogen Bio-Pharmaceutical Technology Co., Ltd., priority 2023, dated 2024)

How the values were obtained:
CDK2/cyclin E = CDK2/cyclin E (Homo sapiens, UniProt P24941); assay: Assay of kinase activity (ADP-Glo); format: biochemical; settings: kinase inhibitory activity, read-out: CDK2/E1 IC50
How it was run: (§1)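 Kinase preincubated 10 min with compound in 50 mM Hepes, 10 mM MgCl2, 0.01% Brij35, 2 mM DTT, then substrate/ATP added for 60 min at 25 °C. ADP formed measured by ADP-Glo luminescence; IC50 by nonlinear concentration-response fitting.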

CDK4/cyclin D1 = CDK4/cyclin D1 (Homo sapiens, UniProt P11802); assay: Assay of kinase activity (ADP-Glo); format: biochemical; settings: kinase inhibitory activity
Chain of CDK4/cyclin D1 (P11802 whole entry, species assumed): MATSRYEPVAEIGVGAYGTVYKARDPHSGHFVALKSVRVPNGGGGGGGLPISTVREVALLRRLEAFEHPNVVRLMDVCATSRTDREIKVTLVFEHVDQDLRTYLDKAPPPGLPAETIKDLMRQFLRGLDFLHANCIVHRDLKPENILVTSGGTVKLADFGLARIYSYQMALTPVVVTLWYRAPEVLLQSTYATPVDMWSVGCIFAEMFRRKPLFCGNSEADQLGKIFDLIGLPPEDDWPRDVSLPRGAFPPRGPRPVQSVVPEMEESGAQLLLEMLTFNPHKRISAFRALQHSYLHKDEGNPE
Chain of CDK4/cyclin D1 (P24385 whole entry partner, species assumed): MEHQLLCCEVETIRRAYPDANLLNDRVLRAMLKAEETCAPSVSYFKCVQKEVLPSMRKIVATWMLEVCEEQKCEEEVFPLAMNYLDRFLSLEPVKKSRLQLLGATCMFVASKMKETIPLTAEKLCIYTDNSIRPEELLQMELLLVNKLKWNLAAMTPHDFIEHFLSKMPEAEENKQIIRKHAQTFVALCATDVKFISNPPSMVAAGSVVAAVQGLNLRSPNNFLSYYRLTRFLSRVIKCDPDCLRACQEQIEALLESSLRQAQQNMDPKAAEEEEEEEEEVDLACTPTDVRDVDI
How it was run: as §1

CDK6/cyclin D3 = CDK6/cyclin D3 (Homo sapiens, UniProt Q00534); assay: Assay of kinase activity (ADP-Glo); format: biochemical; settings: kinase inhibitory activity
Chain of CDK6/cyclin D3 (Q00534 whole entry, species assumed): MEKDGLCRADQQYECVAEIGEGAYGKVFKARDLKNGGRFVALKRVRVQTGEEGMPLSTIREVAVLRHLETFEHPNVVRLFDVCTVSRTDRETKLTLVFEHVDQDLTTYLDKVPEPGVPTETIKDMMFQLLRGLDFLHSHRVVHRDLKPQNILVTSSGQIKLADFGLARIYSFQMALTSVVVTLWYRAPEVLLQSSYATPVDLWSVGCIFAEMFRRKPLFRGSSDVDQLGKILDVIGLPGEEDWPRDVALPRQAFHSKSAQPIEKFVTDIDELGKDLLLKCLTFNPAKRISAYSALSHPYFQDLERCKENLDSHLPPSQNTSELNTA
Chain of CDK6/cyclin D3 (P30281 whole entry partner, species assumed): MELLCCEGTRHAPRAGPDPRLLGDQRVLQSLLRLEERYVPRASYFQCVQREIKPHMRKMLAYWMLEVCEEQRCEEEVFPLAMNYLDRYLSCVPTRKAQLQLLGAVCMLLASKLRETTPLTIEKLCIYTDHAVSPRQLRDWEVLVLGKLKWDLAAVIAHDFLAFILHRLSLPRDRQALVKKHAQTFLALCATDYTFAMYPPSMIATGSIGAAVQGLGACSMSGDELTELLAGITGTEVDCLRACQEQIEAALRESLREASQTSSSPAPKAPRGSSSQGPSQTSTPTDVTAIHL
How it was run: (§2)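 Human CDK6/cyclin D3 and CDK9/cyclin T1 preincubated 10 min at 25 °C with compound in 50 mM Hepes, 10 mM MgCl2, 0.01% Brij35, 2 mM DTT, then reacted 60 min at 25 °C with substrate and ATP. ADP formed measured by ADP-Glo luminescence; IC50 from nonlinear concentration-response fitting.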

CDK9/cyclin T1 = CDK9/cyclin T1 (Homo sapiens, UniProt P50750); assay: Assay of kinase activity (ADP-Glo); format: biochemical; settings: kinase inhibitory activity
Chain of CDK9/cyclin T1 (P50750 whole entry, species assumed): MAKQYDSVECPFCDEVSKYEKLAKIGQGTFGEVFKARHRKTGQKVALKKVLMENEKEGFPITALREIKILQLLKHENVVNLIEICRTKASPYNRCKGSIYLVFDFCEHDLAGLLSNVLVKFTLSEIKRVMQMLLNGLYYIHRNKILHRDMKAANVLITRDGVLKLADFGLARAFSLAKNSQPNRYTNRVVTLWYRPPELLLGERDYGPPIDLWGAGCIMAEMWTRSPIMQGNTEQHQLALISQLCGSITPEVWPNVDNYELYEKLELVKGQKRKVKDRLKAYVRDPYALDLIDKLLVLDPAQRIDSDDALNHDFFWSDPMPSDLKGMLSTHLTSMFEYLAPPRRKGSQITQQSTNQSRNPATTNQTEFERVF
Chain of CDK9/cyclin T1 (O60563 whole entry partner, species assumed): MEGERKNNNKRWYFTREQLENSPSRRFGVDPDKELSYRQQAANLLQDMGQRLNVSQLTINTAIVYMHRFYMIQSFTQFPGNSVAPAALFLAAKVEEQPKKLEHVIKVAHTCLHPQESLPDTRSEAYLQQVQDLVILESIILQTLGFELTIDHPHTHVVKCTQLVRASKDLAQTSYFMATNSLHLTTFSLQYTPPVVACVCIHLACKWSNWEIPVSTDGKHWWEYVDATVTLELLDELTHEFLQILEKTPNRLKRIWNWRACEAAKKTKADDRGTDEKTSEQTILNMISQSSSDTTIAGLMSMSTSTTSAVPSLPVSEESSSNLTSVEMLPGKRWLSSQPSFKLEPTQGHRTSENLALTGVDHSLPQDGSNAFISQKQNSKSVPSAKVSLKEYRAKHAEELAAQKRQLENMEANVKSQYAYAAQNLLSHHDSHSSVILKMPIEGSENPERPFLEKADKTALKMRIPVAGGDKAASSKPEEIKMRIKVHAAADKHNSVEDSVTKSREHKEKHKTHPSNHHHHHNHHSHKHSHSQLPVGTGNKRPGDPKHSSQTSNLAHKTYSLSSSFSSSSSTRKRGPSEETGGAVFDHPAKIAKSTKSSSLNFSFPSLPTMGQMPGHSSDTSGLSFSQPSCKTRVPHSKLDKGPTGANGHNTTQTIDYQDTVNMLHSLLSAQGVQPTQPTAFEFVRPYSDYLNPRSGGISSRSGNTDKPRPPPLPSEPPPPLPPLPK
How it was run: as §2

[1] = system: human acute myeloid leukemia MV-4-11 cells; assay: Assay of cell proliferation (CellTiter-Glo); format: cell-based; settings: MV4-11, 144 h, 6 days, read-out: MV-4-11 IC50 of cell proliferation inhibitory activity
How it was run: (§3)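 Cells seeded per line at growth-adapted densities, treated 6 days at 37 °C/5% CO2 with nine 3-fold dilutions (10 µM to 0.1 nM final, 0.5% DMSO). Viability by CellTiter-Glo luminescence; IC50 from four-parameter fit.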

[2] = system: human breast cancer HCC1806 cells; assay: Assay of cell proliferation (CellTiter-Glo); format: cell-based; settings: Homo sapiens, 144 h, 6 days, read-out: HCC1806 IC50 of cell proliferation inhibitory activity
How it was run: as §3

[3] = system: human breast cancer MCF-7 cells; assay: Assay of cell proliferation (CellTiter-Glo); format: cell-based; settings: 144 h, MCF7 cells, 6 days, read-out: MCF7 IC50 of cell proliferation inhibitory activity
How it was run: as §3

[4] = system: human colon cancer HCT-116 cells; assay: Assay of cell proliferation (CellTiter-Glo); format: cell-based; settings: 144 h, 6 days, read-out: HCT-116 IC50 of cell proliferation inhibitory activity
How it was run: as §3

[5] = system: human gastric cancer MKN1 cells; assay: Assay of cell proliferation (CellTiter-Glo); format: cell-based; settings: Homo sapiens, MKN-1, 144 h; MNK1, 6 days; read-out: MKN1 IC50 of cell proliferation inhibitory activity
How it was run: as §3

[6] = system: Human ovarian cancer OVCAR3 cells; assay: Assay of cell proliferation (CellTiter-Glo); format: cell-based; settings: Homo sapiens, OVCAR-3, 144 h, 6 days, read-out: OVCAR3 IC50 of cell proliferation inhibitory activity
How it was run: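 OVCAR3 cells, 2000/well in RPMI 1640 with 20% FBS, treated with nine 3-fold dilutions from 10 µM to 0.1 nM (0.5% DMSO) for 6 days at 37 °C. Viability by CellTiter-Glo luminescence; IC50 by four-parameter fit.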

| SMILES | IC50 (CDK2/cyclin E) [nM] | IC50 (CDK4/cyclin D1) [nM] | IC50 (CDK6/cyclin D3) [nM] | IC50 (CDK9/cyclin T1) [nM] | IC50 [1] [nM] | IC50 [2] [nM] | IC50 [3] [nM] | IC50 [4] [nM] | IC50 [5] [nM] | IC50 [6] [nM] |
| --- | --- | --- | --- | --- | --- | --- | --- | --- | --- | --- |
| CC(C)n1nnc2ccc3cnc(Nc4ccc(C(=O)N5CCNCC5)c(F)c4)nc3c21 [Example I-19, (2-Fluoro-4-((1-isopropyl-1H-[1,2,3]triazolo[4,5-H]quinazolin-8-yl)amino)phenyl)(piperazin-1-yl)methanone] | 1 | 2 | 12 | 8 | 10 | 379 | 42 | 21 | 85 | 49 |
| C[C@H](CO)n1nnc2ccc3cnc(Nc4ccc(C(=O)N5CCOCC5)cc4)nc3c21 [Example I-51, (R)-(4-((1-(1-Hydroxypropan-2-yl)-1H-[1,2,3]triazolo[4,5-H]quinazolin-8-yl)amino)phenyl)(morpholino)methanone] | 2 | 7 | 149 | 122 | 51 | 441 |  |  | 100 | 301 |
| C[C@@]1(O)CCC[C@H]1n1nnc2ccc3cnc(Nc4ccc(C(=O)N5CCS(=O)(=O)CC5)cc4)nc3c21 [Example I-68, (1,1-Dioxothiomorpholino)(4-((1-((1R,2R)-2-hydroxy-2-methylcyclopentyl)-1H-[1,2,3]triazolo[4,5-H]quinazolin-8-yl)amino)phenyl)methanone] | 1 | 2 | 34 | 112 | 8 | 121 |  |  | 62 | 181 |
| CC(C)n1nnc2ccc3cnc(Nc4ccc(C(=O)N5CCN[C@@H](C)C5)cc4)nc3c21 [Example I-20, (S)-(4-((1-Isopropyl-1H-[1,2,3]triazolo[4,5-H]quinazolin-8-yl)amino)phenyl)(3-methylpiperazin-1-yl)methanone] | 1 | 1 | 16 | 3 | 6 | 109 |  |  | 23 | 39 |
| CC1(O)CCCC1n1c(=O)c(C(F)F)cc2cnc(NC3CCN(S(C)(=O)=O)CC3)nc21 (centres unmarked) [PF06873600 (Ebvaciclib), reference compound] |  |  |  | 452 | 100 | 481 | 24 | 69 | 77 | 118 |
| C[C@@H](n1nnc2ccc3cnc(Nc4ccc(C(=O)N5CCOCC5)cc4)nc3c21)C(C)(C)O [Example I-58, (R)-(4-((1-(3-Hydroxy-3-methylbutan-2-yl)-1H-[1,2,3]triazolo[4,5-H]quinazolin-8-yl)amino)phenyl)(morpholino)methanone] | 1 | 2 | 9 | 19 | 19 | 656 |  |  | 90 | 313 |
| C[C@@]1(O)CCC[C@H]1n1nnc2ccc3cnc(Nc4ccc(S(=O)(=O)NCCO)cc4)nc3c21 [Example I-71] | 0.9 | 1 | 6 | 9 | 2 | 18 |  |  | 3 | 5 |

Results, then the compound that gave them:

| IC50 (CDK2/cyclin E) [nM] | IC50 (CDK4/cyclin D1) [nM] | IC50 (CDK6/cyclin D3) [nM] | IC50 (CDK9/cyclin T1) [nM] | IC50 [1] [nM] | IC50 [2] [nM] | IC50 [3] [nM] | IC50 [4] [nM] | IC50 [5] [nM] | IC50 [6] [nM] | SMILES |
| --- | --- | --- | --- | --- | --- | --- | --- | --- | --- | --- |
| 0.7 | 2 | 12 | 6 | 16 | 233 | 162 | 95 | 21 | 224 | CC(C)n1nnc2ccc3cnc(Nc4ccc(C(=O)N5CCOCC5)cc4)nc3c21 [Example I-35, (4-((1-Isopropyl-1H-[1,2,3]triazolo[4,5-H]quinazolin-8-yl)amino)phenyl)(morpholino)methanone] |
| 0.4 | 1 | 4 | 6 |  | 302 |  | 94 | 196 | 203 | CC(C)n1nnc2ccc3cnc(Nc4ccc(C(=O)N5CCC(O)C5)cc4)nc3c21 (centres unmarked) [Example I-3, (3-Hydroxypyrrolidin-1-yl)(4-((1-isopropyl-1H-[1,2,3]triazolo[4,5-H]quinazolin-8-yl)amino)phenyl)methanone] |
| 0.8 | 2 | 190 | 60 | 12 | 319 |  |  | 46 | 93 | CC(C)n1nnc2ccc3cnc(Nc4ccc(C(=O)N5CCC(N(C)C)CC5)c(F)c4)nc3c21 [Example I-17, (4-(Dimethylamino)piperidin-1-yl)(2-fluoro-4-((1-isopropyl-1H-[1,2,3]triazolo[4,5-H]quinazolin-8-yl)amino)phenyl)metha none] |
| 0.06 | 0.7 | 2 | 2 | 1 | 3 |  |  | 1 | 2 | CN1CCCN(C(=O)c2ccc(Nc3ncc4ccc5nnn([C@@H]6CCC[C@@]6(C)O)c5c4n3)cc2)CC1 [Example I-70, (4-((1-((1,2R)-2-hydroxy-2-methylcyclopentyl)-1H-[1,2,3]triazolo[4,5-H]quinazolin-8-yl)amino)phenyl)(4-methyl-1,4-diazepan-1-yl)methanone] |
| 0.05 | 0.5 | 3 | 2 | 3 | 20 |  |  | 6 | 15 | C[C@@]1(O)CCC[C@H]1n1nnc2ccc3cnc(Nc4ccc(C(=O)N5CCCNCC5)cc4)nc3c21 [Example I-69, (1,4-diazepan-1-yl)(4-((1-((1R,2R)-2-hydroxy-2-methylcyclopentyl)-1H-[1,2,3]triazolo[4,5-H]quinazolin-8-yl)amino)phenyl)methanone] |
| 0.6 | 0.6 | 3 | 3 | 5 | 111 |  |  | 8 | 35 | C[C@@]1(O)CCC[C@H]1n1nnc2ccc3cnc(Nc4ccc(C(=O)N5CCNCC5)cc4)nc3c21 [Example I-65] |
| 0.1 | 0.8 | 19 | 3 | 2 | 16 |  |  | 4 | 7 | CC(C)N[C@H]1CCN(C(=O)c2ccc(Nc3ncc4ccc5nnn(C(C)C)c5c4n3)cc2)C1 [Example I-8, (S)-(4-((1-Isopropyl-1H-[1,2,3]triazolo[4,5-H]quinazolin-8-yl)amino)phenyl)(3-(isopropylamino)pyrrolidin-1-yl)methanone] |
| 0.2 | 2 | 13 | 9 | 17 | 223 |  |  | 45 | 119 | CC(C)n1nnc2ccc3cnc(Nc4ccc(C(=O)N5CC[C@H](F)C5)cc4)nc3c21 [Example I-1, (S)-(3-Fluoropyrrolidin-1-yl)(4-((1-isopropyl-1H-[1,2,3]triazolo[4,5-H]quinazolin-8-yl)amino)phenyl)methanone] |
| 0.8 | 1 | 4 | 15 | 11 | 365 |  |  | 81 | 275 | C[C@@H](n1nnc2ccc3cnc(Nc4ccc(C(=O)N5CCNCC5)cc4)nc3c21)C(C)(C)O [Example I-56, (R)-(4-((1-(3-Hydroxy-3-methylbutan-2-yl)-1H-[1,2,3]triazolo[4,5-H]quinazolin-8-yl)amino)phenyl)(piperazin-1-yl)methanone] |
